Reference: PubChem BioAssay (NCI)
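1) Cells in 96-well plates. 2) Compound, 48 h, 5 concentrations. 3) Linear interpolation between surrounding doses. 4) Unreached endpoint = highest concentration. The concentration for 50% growth inhibition is given as GI50. The concentration for full growth arrest is given as TGI.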

Assays:
Experiment in all cases: NCI-60 cell line screen, 48 h
UACC-62 melanoma = tested on: UACC-62 melanoma
KM12 colon = tested on: KM12 colon
UACC-257 melanoma = tested on: UACC-257 melanoma
NCI-H226 lung = tested on: NCI-H226 lung
LOX IMVI melanoma = tested on: LOX IMVI melanoma
PC-3 prostate = tested on: PC-3 prostate
ACHN renal = tested on: ACHN renal
OVCAR-8 ovarian = tested on: OVCAR-8 ovarian
SR leukemia = tested on: SR leukemia
OVCAR-5 ovarian = tested on: OVCAR-5 ovarian
HS 578T breast = tested on: HS 578T breast
HCT-116 colon = tested on: HCT-116 colon
OVCAR-3 ovarian = tested on: OVCAR-3 ovarian
SK-MEL-28 melanoma = tested on: SK-MEL-28 melanoma
DU-145 prostate = tested on: DU-145 prostate
NCI-H522 lung = tested on: NCI-H522 lung

Row | SMILES | TGI (UACC-62 melanoma) [µM] | TGI (KM12 colon) [µM] | TGI (UACC-257 melanoma) [µM] | TGI (NCI-H226 lung) [µM] | TGI (LOX IMVI melanoma) [µM] | TGI (PC-3 prostate) [µM] | TGI (ACHN renal) [µM] | TGI (OVCAR-8 ovarian) [µM] | TGI (SR leukemia) [µM] | TGI (OVCAR-5 ovarian) [µM] | TGI (HS 578T breast) [µM] | TGI (HCT-116 colon) [µM] | TGI (OVCAR-3 ovarian) [µM] | TGI (SK-MEL-28 melanoma) [µM] | TGI (DU-145 prostate) [µM] | TGI (NCI-H522 lung) [µM] | GI50 (NCI-H226 lung) [µM] | GI50 (LOX IMVI melanoma) [µM] | GI50 (SR leukemia) [µM] | GI50 (SK-MEL-28 melanoma) [µM]
1 | O=C1C=CC2(O)OCCN(CCO)C2=C1 (stereo not given) (tested in a mixture with another compound) | > 100 | > 100 | > 100 | > 100 | > 100 | > 100 | > 100 | > 100 | > 100 | > 100 | > 100 | > 100 | > 100 | > 100 | > 100 | > 100 | – | – | – | –
2 | O=C1CCCC1C(O)(C(F)(F)F)C(F)(F)F (stereo not given) | > 100 | > 100 | > 100 | > 100 | > 100 | > 100 | > 100 | > 100 | > 100 | > 100 | > 100 | > 100 | > 100 | > 100 | > 100 | > 100 | – | – | – | –
3 | CCN(C(C)=O)c1cnc(/C=N/NC(N)=S)c2ccccc12 | 11 | > 100 | > 100 | > 100 | 10.1 | > 100 | > 22.4 | > 34.6 | > 65.8 | > 100 | > 100 | > 100 | > 100 | > 100 | > 25 | > 36.2 | – | – | – | –
4 | CC(C)(C)OC(=O)N1CCC2(C)CC(=O)CC=C12 (stereo not given) | > 100 | > 100 | > 100 | > 100 | > 100 | > 100 | > 100 | > 100 | > 100 | > 100 | > 100 | > 100 | > 100 | > 100 | > 100 | > 100 | – | – | – | –
5 | COC(=O)C1(C(=O)OC)Cc2ccc(C)cc2C2=C1C(=O)c1ccccc1C2=O | 35.8 | 59.6 | 31.2 | > 100 | 39.9 | 31.3 | 31.7 | 34.6 | > 100 | 35.5 | > 100 | 40.3 | 14.9 | 32.5 | 36.9 | 32 | – | – | – | –
6 | CC(=O)c1cccc(Nc2nc3ccc(Cl)cc3c3[nH]c4ccccc4c23)c1 | 24.4 | > 100 | > 88.2 | 67.1 | > 100 | 30.9 | 40.6 | 32.7 | > 100 | 61.6 | 66.4 | > 54.5 | 8.16 | > 100 | 26.8 | 16.4 | 10.4 | 5.46 | 4.21 | 16.5
7 | COc1ccc(N2C(=O)C(C)SC2c2cc3cc(Br)ccc3nc2Cl)cc1 (stereo not given) | > 100 | > 100 | > 100 | > 100 | > 100 | > 100 | > 100 | > 100 | 72.3 | > 100 | > 100 | > 100 | > 100 | > 100 | > 100 | 78.6 | – | – | – | –
8 | CC1(C)C/C(=N/O)c2c(nc3ccc4ccccc4c3c2-c2ccc(Cl)cc2)C1 | 37.1 | > 100 | 91.2 | 46.3 | 26.6 | > 100 | 19.4 | 25 | 21 | > 100 | 76.2 | 24.1 | 24.7 | > 100 | 40.9 | 28.6 | – | – | – | –
9 | OC1[C@H](O)CN(OCc2ccccc2)C[C@@H]1O (stereo not given in full) | > 100 | > 100 | > 100 | > 100 | > 100 | > 100 | > 100 | > 100 | > 100 | > 100 | > 100 | > 100 | > 100 | > 100 | > 100 | > 100 | – | – | – | –
10 | Cc1cc2sc(C)[n+](CCCOS(=O)(=O)[O-])c2cc1C | > 100 | > 100 | > 100 | > 100 | > 100 | > 100 | > 100 | > 100 | > 100 | > 100 | > 100 | > 100 | > 100 | > 100 | > 100 | > 100 | – | – | – | –
11 | Nc1ccc(CCSSCCc2ccc(N)cc2)cc1 | 89.1 | > 100 | 51.7 | > 100 | > 59.8 | > 78.9 | > 93.2 | > 88.2 | 31.6 | 83.5 | 66.4 | 31.9 | > 88.4 | > 78.6 | > 87.4 | 34.9 | – | – | – | –
